In patent publication US11957671B2, “Benzodioxane modulators of leukotriene A4 hydrolase (LTA4H) for prevention and treatment of aging-associated diseases” (Alkahest, Inc., priority 2021, dated 2024):

Legend:
[1] = tested on: hippocampal neurons of aged C57BL/6 mice; assay: Single cell RNA sequencing of NeuN+ hippocampal nuclei (CA1, DG); assay type: in vivo, mouse
Experimental: Aged C57BL/6 mice (21 months of age) were treated for 1 month bid po with vehicle, 1 mg/kg Compound 1, or 2.5 mg/kg SC57461A (n=3 mice per treatment group). NucSeq For Mouse Brain Tissue protocol from 10× Genomics was used to isolate mouse hippocampus nuclei. Approximately 65 mg of brain tissue were used per treatment. Nonidet P40 was used to lyse cell walls and isolated nuclei were stained with Draq5 and NeuN antibodies for FACS sorting. Approximately 5,000 nuclei were collected for each sample. Eight samples were collected for each treatment for a total of 40,000 nuclei per treatment. These samples were prepped for sequencing using the 10× Genomics Chromium Next GEM kit.
GO terms are generated using the g:Profiler Web server (https://bitt.cs.ut.ee/gprofiler) to analyze differential regulated gene lists. Reported are the top 20 gene ontology (GO terms) terms from the biological process category, sorted by significance as determined by P-value. This list was filtered to report significant GO terms that include less than 1000 genes.

aged mice = assay: CA1 synapse density by histology; assay type: in vivo, mouse; conditions: preliminary data, pre- and post-synaptic protein staining
[2] = tested on: Transgenic Notch3R169C mice; assay: CADASIL Mouse Model, Example 10; assay type: in vivo; conditions: 1 mg/kg PO bid for four months
Experimental: Transgenic Notch3^R169C mice are obtained along with transgenic Notch3^WT and/or wild type mice as described previously (Ghosh M, et al., Ann Neurol., 78(6):887-900 (2015); Rajani R M, et al., Acta Neuropathologica Comm., 7(187) (2019); and Joutel A, et al., J. Clin. Invest., 120(2):433-45 (2010), herein incorporated by reference in their entirety). Twenty Notch3R169c mice and 10 littermate control 5-month-old wild type mice are dosed with Vehicle or Compound 1 at 1 mg/kg PO bid for four months. Mice are anesthetized and blood and tissues are collected for further analysis.
Transgenic Notch3^R169C mice treated with Vehicle or Compound as described previously in section A (Experimental Procedures supra) have blood collected via cardiac puncture in syringes pre-filled with Heparin. Brains are collected following saline and Heparin infusion and separated by mid-sagittal slice. One half of the brain is drop fixed in 4% PFA and 24 hours later, the brain is changed into a solution of 15% sucrose. A secondary change to 30% sucrose is performed 48 hours after initial fixation in PFA.
Brains are then sectioned to 50 micrometers in thickness using a vibratome and placed on a slide for immunostaining and stained with PDGFRβ and LECTIN antibodies as described previously (Ghosh supra) to show pericyte coverage. The number of PDGFRβ positive pericytes per square millimeter of selected field area in the cortex is analyzed by randomly selecting four fields in nonadjacent sections at approximately 100 μm intervals.
Albumin and fibrinogen presence is measured as a positive signal in the brain parenchyma. The signals are quantified as described previously (Ghosh supra). Transgenic mice treated with Vehicle has increased albumin and fibrinogen leakiness into the brain parenchyma compared to Vehicle treated wild-type controls.
GFAP and AQP4 markers for astrocytes are measured to determine the presence of astrocyte end-feet. Transgenic mice treated with Vehicle is reduced GFAP and AQP4 compared with Vehicle treated wild-type controls. […] AQP4 and GFAP are markers for astrocyte, which make up an important part of the neurovascular unit and are lost in CADASIL mouse models and human patients.

aged C57BL6 mice [3] = assay: Rotarod; assay type: in vivo, mouse; conditions: 19 days of dosing
Experimental: Mice were trained by allowing to run on the rotarod at 5 RPM speed setting on the i-Therm CTR-44 Rotarod for 5 minutes, if the mouse fell off it was put back on until it was able to complete minutes without falling off. After 15 minutes, if the mouse is unable to stay on the rotarod for a continuous 5 minutes, the mouse is excluded from analysis. Mice were then given 3 trials where the speed was increased from 5 RPM to 40 RPM over 90 seconds; the time at which the mouse fell off was recorded for each trial. Inter-trial interval is at least 15 minutes to allow the mice adequate rest. The rotarod is cleaned with 70% ethanol between trials.

[4] = tested on: Male C57BL/6 mice aged 20-21 months; assay: Example 15: gene expression and histology, Compound 1 versus SC-57461A; assay type: in vivo, mouse; conditions: Compound 1 1 mg/kg, SC-57461A 2.5 mg/kg PO bid one month
Experimental: Male C57BL/6 mice aged 20-21 months are treated with Vehicle, Compound 1, or SC-57461A commercially available LTA4H inhibitor. The mice are dosed with Compound 1 at 1 mg/kg or SC-57461A at 2.5 mg/kg PO bid for one month. Mice are anesthetized and blood and tissues are collected for further analysis. Blood is collected via cardiac puncture in syringes pre-filled with Heparin. Brains are collected following ACSF perfusion and processed for single cell RNA sequencing of either labeled endothelial cells (experiment 1) or NeuN-positive neuronal nuclei (experiment 2). In a+ separate cohort of mice, brains are collected following 4% PFA perfusion for histological endpoints (experiment 3).

[5] = tested on: synthesis of LTB4 in human whole blood; assay: human whole blood (HWB) assay, LTB4 production inhibition; assay type: cell-based; conditions: calcimycin 20 μM
Experimental: The compounds of the invention are additionally tested in a human whole blood (HWB) assay to determine their ability to inhibit the synthesis of LTB4 in a cellular system. Compounds are combined with heparinized human whole blood and incubated for 15 minutes at 37° C. Calcimycin (20 μM final, prepared in phosphate-buffered saline, pH 7.4) is then added and the mixture is incubated for another 30 minutes at 37° C. The samples are centrifuged for 5 min at low speed (1500×g) and the plasma layer is removed. Plasma LTB4 concentrations are then measured using an antibody-based homogenous time-resolved fluorescence method (CisBio, Bedford, Mass.). In general, the preferred potency range (IC50) of compounds in the HWB assay is between 10 nM to 10 μM, the more preferred potency range is 10 nM to 1 μM, and the most preferred potency range is 10 nM to 100 nM.

aged C57BL6 mice [6] = assay: Nesting; assay type: in vivo, mouse; conditions: 10 days of dosing
Experimental: All nesting material was removed from home cage and mice were given 2 fresh nestlets 12-18 hours prior to scoring. The nest was carefully scored on a scale of 0-5 by an experimenter blinded to treatment group: 0 undisturbed, 1 disturbed, 2 flat, 3 cup, 4 incomplete dome, 5 complete dome.

[7] = 1 month bid po, 1 mg/kg Compound 1 or 2.5 mg/kg SC57461A

O=C(O)C1CCN(Cc2ccc([C@H]3COc4ccccc4O3)cc2)CC1 [Example 1, 1-{4-[(2S)-2,3-dihydro-1,4-benzodioxin-2-yl]benzyl}piperidine-4-carboxylic acid]
CA1 neuronal gene changes [1, 7]: many significant gene changes to neurons in the CA1 region of the hippocampus
DG neuronal gene changes [1, 7]: many significant gene changes to neurons in the DG region of the hippocampus
Dcc gene expression in the dentate gyrus [1, 7]: upregulation of Dcc gene expression
Spock3 gene expression in the dentate gyrus [1, 7]: upregulation of Spock3 gene expression
Biological Process GO terms, CA1 hippocampal neurons ([1]; long-term treatment): changes to “synaptic signaling” and “synaptic organization”
Biological Process GO terms, DG hippocampal neurons ([1]; long-term treatment): changes to synapses
synapse density in the CA1 region of the hippocampus (aged mice): trends towards increasing synapse density
GFAP and AQP4 signal at vessels in the cortex [2]: increased positive signal at Lectin-positive vessels
additional blood-brain barrier markers in cortices [2]: significant levels of improvement
albumin and fibrinogen in brain parenchyma [2]: reduced albumin and fibrinogen
plasma levels of LTB4 [2]: reduction in plasma levels of LTB4
pericyte coverage and number in cortex ([2]; versus vehicle-treated transgenic mice): increase in pericyte coverage and number
average time before falling on the rotarod (aged C57BL6 mice [3]): no change in average time before falling
endothelial gene expression in brain compared to SC-57461A [4]: more robust change in endothelial gene expression
histology of endothelial cells and neurons compared to SC-57461A [4]: more robust changes in histology
neuronal gene expression in brain compared to SC-57461A [4]: more robust change in neuronal gene expression
IC50 [5]: 179 nM
nesting building score (aged C57BL6 mice [6]): no change in nesting building score
